According to paper doi:10.1101/2024.01.18.576231v1 (biorxiv, 2024):
pEC50, pKd: −log10 of the molar value.

How the values were obtained:
Assay type in all cases: binding
CRBN_ΔHBD [1] = biological target: T1, CRBN_ΔHBD (Homo sapiens, UniProt Q96SW2, INS193GNGNSG/DEL194-248); assay: fluorescence polarization, displacement of Cy5-thalidomide; conditions: […] Cy5-thalidomide tracer, pH […]
CRBN_TBD = CRBN_TBD (Homo sapiens, UniProt Q96SW2); assay: fluorescence polarization, direct titration; conditions: labelled compound; […] tracer, pH […], RT
CRBN_ΔHBD [2] = biological target: T1, CRBN_ΔHBD; assay: fluorescence polarization, direct titration; conditions: labelled compound; […] tracer, pH […], RT
CRBN:DDB1 complex = CRBN:DDB1 complex (Homo sapiens, UniProt Q96SW2); assay: fluorescence polarization, direct titration; conditions: labelled compound; […] tracer, pH […], RT

Compound | pEC50 (CRBN_ΔHBD [1]) | further results
COc1cccc2c1CN(C1CCC(=O)NC1=O)C2=O (stereo not shown) [Z2508929002] | 6.65 | 
Nc1c(O)ccc2c1C(=O)N(C1CCC(=O)NC1=O)C2=O (stereo not shown) [Z3269026162] | 6.73 | 
NC(=O)N1CCC(C#Cc2cccc3c2CN(C2CCC(=O)NC2=O)C3=O)CC1 (stereo not shown) [Z4999915373] | 6.66 | 
Cy5-conjugated thalidomide |  | pKd (CRBN_TBD): 5.30; pKd (CRBN_ΔHBD [2]): 7.89; pKd (CRBN:DDB1 complex): 8.39
O=C1CCC(N2Cc3c(C=C4CCOC4)cccc3C2=O)C(=O)N1 (stereo not shown) [Z4223332422] | 6.71 | 

The next lines start with results.

pEC50 (CRBN_ΔHBD [1]) | Compound | further results
6.82 | COc1cc(N)cnc1-c1ccc2c(c1)CN(C1CCC(=O)NC1=O)C2=O (stereo not shown) [Z5000467358] | 
6.59 | Cc1nn(CCO)cc1CNc1ccc2c(c1)CN(C1CCC(=O)NC1=O)C2=O (stereo not shown) [Z5000207375] | 
6.71 | COc1nccnc1CNc1ccc2c(c1)CN(C1CCC(=O)NC1=O)C2=O (stereo not shown) [Z5000208878] | 
